Patent US20240082208A1 (priority 2021, published 2024)

How the values were obtained:
[1] = system: dengue virus; assay: In vitro dengue virus infection of Vero cells, viral RNA titer by qRT-PCR; assay type: cell-based; settings: 40 μM, 48 hours after infection
Method: In order to evaluate the antiviral effect of irosustat in vitro, an additional experiment was performed in which Vero cells were infected with dengue virus. 16 hours before viral infection, cells were pre-treated with irosustat at a concentration of 0 μM, 20 μM or 40 μM, and 1 hour thereafter, the medium was replaced with a cell culture medium containing the drug. 48 hours after infection with the virus, the viral RNA titer of dengue virus in the cell culture medium was measured through qRT-PCR, and the results are shown in FIG. 3.

[2] = system: severe acute respiratory syndrome virus (SARS; SARS-CoV-2); design: species or system K18-ACE2 TG mice; settings: mouse, in vivo

For `NS(=O)(=O)Oc1ccc2c3c(c(=O)oc2c1)CCCCC3` [irosustat, (6-oxo-8,9,10,11-tetrahydro-7H-cyclohepta[c]chromen-3-yl)sulfamate], the “decrease of virus titer” value [1] was ≥ 50% and the “viral titer in the lung tissue, lower than vehicle” value [2] was “about 77%”.
